{"source": "patent EP4541846A1", "about": "“ENCAPSULANT FILM COMPOSITION, AND ENCAPSULANT FILM COMPRISING SAME” (LG Chem, Ltd., priority 2022, dated 2024)", "origin": "cited, not measured here", "note": "Counter-ions that a name gives are not always drawn."}
{"conditions": "marked by acute toxicity, oral/acute toxicity, percutaneous/skin corrosivity/skin irritation/severe eye damage/eye irritation/dermal hypersensitivity, or the like"}
{"smiles": "C=CCOC(=O)OC(=O)OCC=C", "note": "[diallyl decarbonate]", "harmfulness/dangerousness classification in SDS": "harmful"}
{"smiles": "C=CCOC(=O)/C=C/C(=O)OCC=C", "note": "[diallyl fumarate]", "harmfulness/dangerousness classification in SDS": "harmful"}
{"smiles": "C=CCOC(=O)/C=C\\C(=O)OCC=C", "note": "[diallyl maleate]", "harmfulness/dangerousness classification in SDS": "harmful"}
